Test results as given in US20150148256A1, “BIOLUMINESCENCE IMAGING-BASED SCREENING ASSAY AND INHIBITORS OF ABCG2” (THE JOHNS HOPKINS UNIVERSITY, priority 2008, published 2015).
Structures can show the parent of a compound that is named as a salt.

What follows are molecules tested against T1, ABCG2 (Homo sapiens, UniProt Q9UNQ0) (assay: Bioluminescence imaging (BLI) assay in HEK293/ABCG2/fLuc cells). Details: Table 2; HEK293/ABCG2/fLuc cells, compound approximately 17 μM, ~50 μg/mL D-luciferin, 40 min time point.
T1 sequence (Q9UNQ0 1-655): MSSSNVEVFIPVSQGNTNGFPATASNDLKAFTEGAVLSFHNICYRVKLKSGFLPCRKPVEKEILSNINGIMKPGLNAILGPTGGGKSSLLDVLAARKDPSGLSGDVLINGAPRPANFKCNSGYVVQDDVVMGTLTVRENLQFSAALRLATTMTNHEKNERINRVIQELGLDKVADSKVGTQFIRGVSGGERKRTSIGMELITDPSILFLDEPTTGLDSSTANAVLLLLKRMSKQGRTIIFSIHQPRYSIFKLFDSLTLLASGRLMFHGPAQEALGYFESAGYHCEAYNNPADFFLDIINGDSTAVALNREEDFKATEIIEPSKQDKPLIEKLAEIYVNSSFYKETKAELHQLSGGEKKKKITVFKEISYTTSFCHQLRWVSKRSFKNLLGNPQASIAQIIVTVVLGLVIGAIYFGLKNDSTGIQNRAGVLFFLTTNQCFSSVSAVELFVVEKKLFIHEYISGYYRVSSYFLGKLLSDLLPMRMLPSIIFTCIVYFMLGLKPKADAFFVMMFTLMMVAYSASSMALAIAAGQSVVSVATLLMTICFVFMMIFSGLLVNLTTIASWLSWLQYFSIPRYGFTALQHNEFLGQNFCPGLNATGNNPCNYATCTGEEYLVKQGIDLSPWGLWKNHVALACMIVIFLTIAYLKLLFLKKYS
Procedure, shortened: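 Light output from HEK293/ABCG2/fLuc cells plated at 4×10^4 per well, treated with compounds, imaged every 5 min for ~1 h. Values are signal-to-background ratios versus solvent control at 40 min, indicating ABCG2 inhibition. Dose range 0.001 μM-100 μM with 50 μg/mL D-luciferin for selected compounds.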

Molecule	Fold (BLI enhancement, S/B ratio over control) [fold]
C=C(C)[C@]12C[C@@H](C)[C@@]34O[C@](Cc5ccccc5)(O[C@@H]1[C@@H]3C=C(COC(=O)Cc1ccc(O)c(OC)c1)C[C@]1(O)C(=O)C(C)=C[C@@H]41)O2 [resiniferatoxin]	4.2
O=C(Nc1ccccc1)c1ccccc1O [salicylanilide]	2.2
CSc1ccc2c(c1)N(CCC1CCCCN1C)c1ccccc1S2 (stereo not drawn) [th oridaz ne]	2.5
antimycin	2.3
estrone hemisuccinate	5.4
hesperidin methyl chalcone	2.1
ivermect n	4.3

Same assay, conditions: Table 4; approximately 17 μM, 40 min time point

Molecule	Fold (BLI enhancement), previously unknown compounds [fold]
estrone hemisuccinate	5.4

Same assay, conditions: human

Molecule	Fold (BLI enhancement, S/B ratio over control) [fold]
C[C@]12Cc3c[nH]nc3C[C@@H]1CC[C@@H]1[C@@H]2CC[C@@]2(C)[C@H]1CC[C@]2(C)O [stanozolol]	2.8

Same assay, conditions: human, 40 min, 17 μM

Molecule	Fold (BLI enhancement, S/B ratio over control) [fold]	Fold (BLI enhancement), known compounds [fold]	fold (BLI enhancement), additional previously known ABCG2 inhibitors [fold]	Fold (BLI enhancement), previously unknown compounds [fold]
O=C(C1CCCCC1)N1CC(=O)N2CCc3ccccc3C2C1 (stereo not drawn) [praziquantel]	3.3			
CN1CCCN=C1/C=C/c1cccs1 [pyrantel]	3.9			
O=C1c2ccc(O)c(O)c2C(=O)c2c(O)ccc(O)c21 [quinalizarin]	3.0			
CC(=O)SCC(Cc1ccccc1)C(=O)NCC(=O)OCc1ccccc1 (stereo not drawn) [racecadotril]	2.0			
COC(=O)[C@H]1[C@H]2C[C@@H]3c4[nH]c5cc(OC)ccc5c4CCN3C[C@H]2C[C@@H](OC(=O)c2cc(OC)c(OC)c(OC)c2)[C@@H]1OC [reserpine]	5.4	5.4		
O=C(O)c1cc(O)c2c(c1)C(=O)c1cccc(O)c1C2=O [rhein]	3.1			
CC(C)c1nc(N(C)S(C)(=O)=O)nc(-c2ccc(F)cc2)c1/C=C/[C@@H](O)C[C@@H](O)CC(=O)O [rosuvastatin]	3.9			
OCc1cc(C(O)CNCCCCCCOCCCCc2ccccc2)ccc1O (stereo not drawn) [salmeterol xinafoate]	2.4			
CC(C)(C)NC(=O)[C@@H]1C[C@@H]2CCCC[C@@H]2CN1C[C@@H](O)[C@H](Cc1ccccc1)NC(=O)[C@H](CC(N)=O)NC(=O)c1ccc2ccccc2n1 [saquinavir mesylate]	4.9		4.9	
CCCc1nn(C)c2c(=O)[nH]c(-c3cc(S(=O)(=O)N4CCN(C)CC4)ccc3OCC)nc12 [sildenafil]	6.6			6.6
CCC(C)(C)C(=O)O[C@H]1C[C@@H](C)C=C2C=C[C@H](C)[C@H](CC[C@@H]3C[C@@H](O)CC(=O)O3)[C@H]21 [simvastatin]	2.7			
COc1cc([S+](C)[O-])ccc1-c1nc2ncccc2[nH]1 (stereo not drawn) [sulmazole]	3.0			
CCCCCNC(=N)N/N=C/c1c[nH]c2ccc(OC)cc12 [tegaserod maleate]	3.1			
CCCc1nc2c(C)cc(-c3nc4ccccc4n3C)cc2n1Cc1ccc(-c2ccccc2C(=O)O)cc1 [telmisartan]	2.0			
CC(C)(C)c1ccc(C(O)CCCN2CCC(C(O)(c3ccccc3)c3ccccc3)CC2)cc1 (stereo not drawn) [terfenadine]	4.2			
Cc1ccc(C(=O)C(C)CN2CCCCC2)cc1 (stereo not drawn) [tolperisone hydrochloride]	2.1			
CN(C)CCOc1ccc(/C(=C(/CCCl)c2ccccc2)c2ccccc2)cc1 [toremifene]	2.3			
CCCc1nc(C)c2c(=O)[nH]c(-c3cc(S(=O)(=O)N4CCN(CC)CC4)ccc3OCC)nn12 [vardenafil]	3.3			
